Data taken from patent publication US12297222B2, “CD206 targeted drug delivery vehicles carrying novel bisphosphonate drug payloads via a degradable linker” (Navidea Biopharmaceuticals, Inc., priority 2022, dated 2025).

Assays:
human macrophages [1] = experiment: Human macrophage cell culture assay: surface marker expression (MFI) by flow cytometry; assay type: cell-based
Method: (§1) GM-CSF induces the macrophages to adopt an activated phenotype that is intermediate between the extremes of M1 or M2. […] The macrophage cell cultures were incubated with the supplemented complete medium for 24 hours after which it was removed and replaced with fresh complete medium. The macrophage cultures were then incubated for an additional three days. The three-day post treatment incubation was performed to permit assessment of durable changes in macrophage phenotypes.
For each donor's macrophages, all experiments were run in triplicate.

human macrophages [2] = experiment: Human macrophage cell culture assay: viability (DAPI-) by flow cytometry; assay type: cell-based; conditions: 24 hours treatment, then three days in fresh medium; any tested concentration
Method: as §1, with “phenotypes. […] For each donor's macrophages, all experiments were run in triplicate.” for “phenotypes.”

SMILES	expression level of the evaluated surface markers (overall) (human macrophages [1]; FIG. 8, free BIS-2)	cell viability (human macrophages [2])	expression levels of the evaluated surface markers (overall) (human macrophages [1]; FIG. 5, 80 μg of MAD-BIS-1 or equal molar free BIS-1, fold change in MFI vs saline)	changes in macrophage phenotype observed with MAD-BIS-1 (human macrophages [1]; free BIS-1 at any dose)
CC(=O)c1cn(CC(C)(P(=O)(O)O)P(=O)(O)O)cn1 [BIS-2, 2-(4-acetylimidazole)ethylidene-1-methyl-1,1-bisphosphonic acid]	did not alter			
CC(=O)c1sc(NCC(P(=O)(O)O)P(=O)(O)O)nc1C [BIS-1, 2-(4-methyl-5-acetylthiazole-2-yl-amino)ethylidene 1,1-bisphosphonic acid]		neither MAD-BIS-1 nor free BIS-1 decreased cell viability	very little effect	could not be replicated
